Experimental data: US20090176950A1, “METAL HYDRIDE COMPLEX, METHOD OF HYD[…]-OPENING POLY[…] OF CYCLOOLEFIN, AND PROCESS FOR PRODUCING PRODUCT OF HYD[…] RING-OPENING POLY[…] OF CYCLOOLEFIN” (JSR CORPORATION, priority 2005, published 2009)

Legend:
[1] = hydrogenation of ring-opening polymer with the complex as hydrogenation catalyst (Example 4 procedure); conditions: 0.06 parts complex per 1000 parts polymer solution, hydrogen 100 kg/cm^2, 165° C., 3 hours, 1H-NMR
Experimental: Into a reaction vessel substituted with nitrogen were charged 250 parts of 8-methyl-8-methoxycarbonyltetracyclo[4.4.0.1^2,5.1^7,10]-3-dodecene, 18 parts of 1-hexene (molecular weight adjusting agent) and 750 parts of toluene and the resulting solution was heated to 80° C. Thereafter, to the solution in the reaction vessel were added 0.62 parts of a toluene solution of triethylaluminum (1.5 mol/L) as a polymerization catalyst and 3.7 parts of a toluene solution (concentration: 0.05 mol/L) of tungsten hexachloride modified with t-butanol and methanol (t-butanol:methanol:tungsten=0.35 mol:0.3 mol:1 mol). The ring-opening copolymerization reaction was carried out by heating and stirring this system at 80° C. for 3 hours to obtain a ring-opening metathesis polymer solution of 8-methyl-8-methoxycarbonyltetracyclo[4.4.0.1^2,5.1^7,10]-3-dodecene. The polymerization conversion rate in this polymerization reaction was 97%.
Into an autoclave was charged 1000 parts of the ring-opening polymer solution obtained above and to this solution was added as a hydrogenation catalyst a toluene solution of 0.5% by weight of the ruthenium hydride complex obtained in Example 1 in an amount (12 parts) so that the amount of added complex was 0.06 parts. The hydrogenation reaction was carried out by heating and stirring for 3 hours under the conditions of a hydrogen gas pressure of 100 kg/cm^2 and a reaction temperature of 165° C. The resulting reaction solution (hydrogenated polymer solution) was cooled and then the hydrogen gas was released. This reaction solution was poured into a large amount of methanol to separate and collect a coagulated substances which was dried to obtain a hydrogenated polymer.

[2] = solubility of the metal hydride complex to toluene; format: physicochemical
[3] = hydrogenation of ring-opening copolymer with the complex as catalyst (Example 7); conditions: 0.06 parts complex, hydrogen 100 kg/cm^2, 165° C., 3 hours
Description: A ring-opening polymer solution was obtained by carrying out the same polymerization operations as those in Example 4 except that 187.5 parts of 8-methyl-8-methoxycarbonyltetracyclo[4.4.0.1^2,5.1^7,10]-3-dodecene and 62.5 parts of tricyclo[4.3.0.1^2,5]deca-3,8-diene were used in place of 250 parts of 8-methyl-8-methoxycarbonyltetracyclo[4.4.0.1^2,5.1^7,10]-3-dodecene. The polymerization conversion rate of this polymerization reaction was 98%.
(§1) Into an autoclave was charged 1000 parts of the ring-opening copolymer solution thus obtained and to the ring-opening copolymer solution was added a toluene solution of 1.0% by weight of the ruthenium hydride complex obtained in Example 2 in an amount (6 parts) so that the amount of added complex was 0.06 parts. The hydrogenation reaction was carried out by heating and stirring for 3 hours under the conditions including a hydrogen gas pressure of 100 kg/cm^2 and a reaction temperature of 165° C. The resulting reaction solution (hydrogenated polymer solution) was cooled and then the hydrogen gas was released. […] This polymer was analyzed by ^1H-NMR and the hydrogenation rate was determined by the ratio of the integral value of the saturated hydrocarbons at 0.6 to 2.5 ppm to the integral value of the unsaturated hydrocarbons at 5.0 to 5.6 ppm.

[4] = hydrogenation of ring-opening copolymer with the complex as catalyst (Example 8); conditions: 0.06 parts complex, hydrogen 100 kg/cm^2, 165° C., 3 hours
Description: A ring-opening copolymer solution was obtained by carrying out the same polymerization operations as those in Example 4 except that 190 parts of 8-methyl-8-methoxycarbonyltetracyclo[4.4.0.1^2,5.1^7,10]-3-dodecene and 60 parts of spiro[fluorene-9,8′-tricyclo[4.3.0.1^2,5]dec-3-ene were used in place of 250 parts of 8-methyl-8-methoxycarbonyltetracyclo[4.4.0.1^2,5.1^7,10]-3-dodecene. The polymerization conversion rate in this polymerization reaction was 96%.
as §1, with “the ring-opening polymer solution was” for “the ring-opening copolymer solution was”, “the conditions of a hydrogen” for “the conditions including a hydrogen”

[5] = autoclave hydrogenation of DNM/DCP polymer (Example 9 procedure)
Experimental: (§2) ^1H-NMR was measured by using AVANCE500 manufactured by BRUKER as a nuclear magnetic resonance spectrometer (NMR) with chloroform-d as a measuring solvent. The composition of a monomer was calculated from the integral value of the vinylene group at 5.1 to 5.8 ppm, the methoxy group at 3.7 ppm and the aliphatic proton at 0.6 to 2.8 ppm, and then the hydrogenation rate was calculated.
Into a reaction vessel substituted with nitrogen were charged 75 parts by weight of 8-methoxycarbonyl-8-methyltetracyclo[4.4.0.1^2,5.1^7,10]-3-dodecene (DNM) and 25 parts by weight of dicyclopentadiene (DCP) as monomers, 6 parts by weight of 1-butene as a molecular weight adjusting agent and 170 parts by weight of toluene, and the resultant mixture was heated to 100° C. To this mixture were added 0.005 parts by weight of triethylaluminum, 0.005 parts by weight of methanol-modified WCl6 (anhydrous methanol:PhPOCl2:WCl6=103:630:427 (weight ratio)), and the reaction was carried out at 100° C. for one hour to obtain a polymer. The conversion was 100%.
Next, into a pressure-proof autoclave with a design temperature of 185° C. and a capacity of 1.25 m^3 were charged a solution of the polymer obtained above equivalent to 350 kg of the solid component and as a hydrogenation catalyst 0.0335 parts by weight of RuH(CO)[P(C6H5)]2(OCO-p-Ph-n-C5H13) of which saturation solubility to toluene at 25° C. is 5% by weight based on 100 parts by weight equivalent to the polymer solid component conversion, and the autoclave was heated to 100° C. Then, hydrogen gas was introduced to the autoclave to increase the pressure to 10 MPa. The maximum attained temperature during the hydrogenation reaction was 179° C. The theoretical value of generated heat was calculated from DNM=129.3 kcal/kg and DCP=452.3 kcal/kg. Thereafter, the reaction was carried out at 165° C. for 3 hours while maintaining the pressure at 10 MPa to obtain a hydrogenated product. […]

[6] = autoclave hydrogenation of DNM/DCP/NB polymer (Example 10 procedure); conditions: gelation inhibitor
Experimental: as §2
A hydrogenated product was obtained in the same way as Example 1 except that in Example 9, there were charged 65 parts by weight of 8-methoxycarbonyl-8-methyltetracyclo[4.4.0.1^2,5.1^7,10]-3-dodecene (DNM), 25 parts by weight of dicyclopentadiene (DCP) and 10 parts by weight of norbornene (NB) as monomers and 190 parts by weight of toluene to synthesize a polymer, and the charged amount equivalent to the solid component of the polymer was changed to 330 kg in the hydrogenation reaction. […] The maximum attained temperature during the hydrogenation reaction was 179° C. The theoretical value of generated heat was calculated from DNM=129.3 kcal/kg, DCP=452.3 kcal/kg and NB=319.3 kcal/kg.

[7] = hydrogen introduced at 100° C., 10 MPa, 165° C. for 3 hours

| Compound | hydrogenation rate of the hydrogenated polymer [1] | solubility to toluene at 20° C. [2] | hydrogenation rate of the main chain of the copolymer [3] | hydrogenation rate of the unsaturated double bonds derived from the side chain of tricyclo[4.3.0.1^2,5]deca-3,8-diene [3] | hydrogenation rate of the main chain of the copolymer [4] | olefinic unsaturated bonds in the main chain hydrogenated (hydrogenation rate) [5, 7] | saturation solubility to toluene at 25° C. [2] | olefinic unsaturated bonds in the main chain hydrogenated (hydrogenation rate) ([6]; hydrogen introduction temperature 100° C.) | olefinic unsaturated bonds in the main chain hydrogenated (hydrogenation rate) ([6]; hydrogen introduction temperature 150° C., 700 parts toluene) | olefinic unsaturated bonds in the main chain hydrogenated (hydrogenation rate) ([5]; hydrogen introduction temperature 150° C., 600 parts toluene, gelation inhibitor) | saturation solubility to toluene ([2]; temperature not given) |
| --- | --- | --- | --- | --- | --- | --- | --- | --- | --- | --- | --- |
| RuH(OCOPh-C5H11)(CO)(PPh3)2 [Example 2] | 99.95% | 1.0 % by weight | 99.97% | ≥ 99.99% | 99.93% |  |  |  |  |  |  |
| RuH(OCOPh-C8H17)(CO)(PPh3)2 [Example 3] | 99.90% | 5.0 % by weight |  |  |  |  |  |  |  |  |  |
| RuH(CO)[P(C6H5)]2(OCO-p-Ph-n-C5H13) |  |  |  |  |  | ≥ 99.9% | 5 % by weight |  |  |  |  |
| [C-]#[O+].[Cl][RuH].c1ccc(P(c2ccccc2)c2ccccc2)cc1.c1ccc(P(c2ccccc2)c2ccccc2)cc1.c1ccc(P(c2ccccc2)c2ccccc2)cc1 [RuHCl(CO)(PPh3)3, reference compound] | 99.75% | 0.03 % by weight |  |  | 99.30% | ≥ 99.9% | 0.05 % by weight | ≥ 99.9% | ≥ 99.9% | ≥ 99.9% | 0.05 % by weight |
| RuH(OCOPh)(CO)(PPh3)2 [Example 1] | 99.99% | 0.5 % by weight |  |  |  |  |  |  |  |  |  |
